The source of these data is patent US10383880B2 (Reset Therapeutics, Inc., priority 2012, dated 2019).

A word on the EC50: it is the midpoint of the concentration-response curve.

In the assay the test system is Per2-dLuc U2OS reporter cells. Description: Per2 assay for evaluating the potency of test compounds (high-throughput circadian assay). The class given is cell-based. To be noted: Homo sapiens, U2OS, stable U2OS reporter cells harboring Per2-dLuc; luminescence monitored over 4-5 days at 35° C. On the procedure: Compounds were screened by using a high-throughput circadian assay system as previously described in Zhang, E. E. et al. Cell, 2009, 139, 199-210. In brief, stable U2OS reporter cells harboring Per2-dLuc were plated at a density of 8,000 cells/well in Corning 96-well, solid white, flat bottom, TC-treated microplates (Corning®), and incubated for 24 hours at 37° C. in the presence of 5% CO2. The cells were then synchronized by serum shock by media exchange to a minimal explant media (10 mM HEPES (pH 7.0), 2% B27, 1×PSG (Invitrogen®), and 1.0 mM beetle luciferin (Promega®)) followed by the addition of the compounds of formula I dissolved in dimethylsulfoxide (0.5% final dimethylsulfoxide concentration). Gene expression was monitored by measuring luminescence (TecanR M200) over 4-5 days at 35° C. The period, amplitude, and phase of the associated circadian rhythms were determined using Multicycle™ software (Actimetrics, Inc). EC50 values of the compounds of formula I were calculated using Graphpad™ (Prism®).
For the compound `COCCN(CC(O)Cn1c2ccccc2c2ccccc21)S(C)(=O)=O` (stereo not shown) [Compound 30, N-(3-(9H-Carbazol-9-yl)-2-hydroxypropyl)-N-(2-methoxyethyl)methanesulfonamide], the EC50 came to 390 nM. The compound `CS(=O)(=O)N(CC(O)Cn1c2ccccc2c2ccccc21)C1CC(F)C1` (stereo not shown) [Compound 147, N-(3-(9H-Carbazol-9-yl)-2-hydroxypropyl)-N-(3-fluorocyclobutyl)methanesulfonamide] gave a concentration giving a half-maximal response (EC50) of 980 nM. This EC50 is about 2.5-fold higher than that of the compound before. As for `CS(=O)(=O)N(Cc1ccco1)CC(O)Cn1c2ccccc2c2ccccc21` (stereo not shown) [Compound 1, N-(3-(9H-Carbazol-9-yl)-2-hydroxypropyl)-N-(furan-2-ylmethyl)methanesulfonamide], the EC50 is 340 nM. For `CS(=O)(=O)NCC(O)Cn1c2cc(F)ccc2c2ccc(F)cc21` (stereo not shown) [Compound 162, N-(3-(2,7-Difluoro-9H-carbazol-9-yl)-2-hydroxypropyl)methanesulfonamide] the value was 1990 nM; for `CS(=O)(=O)N(CC(O)Cn1c2ccccc2c2ccccc21)C1CCC(F)(F)CC1` (stereo not shown) [Compound 128, N-(3-(9H-Carbazol-9-yl)-2-hydroxypropyl)-N-(4,4-difluorocyclohexyl)methanesulfonamide], 372 nM. `CC(O)(CN(C1CCC1)S(C)(=O)=O)Cn1c2ccc(F)cc2c2cc(F)ccc21` (stereo not shown) [Compound 149, N-Cyclobutyl-N-(3-(3,6-difluoro-9H-carbazol-9-yl)-2-hydroxy-2-methylpropyl)methanesulfonamide] had an EC50 of 7620 nM. Take `O=S1(=O)CCCN1C[C@@H](O)Cn1c2ccccc2c2ccccc21` [Compound 39, (S)-N-(3-(9H-Carbazol-9-yl)-2-hydroxypropyl)isothiazolidine 1,1-dioxide]: it took 21 nM to reach a half-maximal effect (EC50). Compound `CS(=O)(=O)N(CC(O)Cn1c2ccc(F)cc2c2cc(F)ccc21)c1ccc(-c2cc[nH]n2)cc1` (stereo not shown) [Compound 214, N-(4-(1H-Pyrazol-3-yl)phenyl)-N-(3-(3,6-difluoro-9H-carbazol-9-yl)-2-hydroxypropyl)methanesulfonamide] gave an EC50 of 6560 nM. Against the preceding compound, the EC50 is about 310-fold higher.

`CS(=O)(=O)N(CC(O)Cn1c2ccc(F)cc2c2cc(F)ccc21)c1ccc(OC2CC2)cc1` (stereo not shown) [Compound 212, N-(4-Cyclopropoxyphenyl)-N-(3-(3,6-difluoro-9H-carbazol-9-yl)-2-hydroxypropyl)methanesulfonamide] had a concentration for a half-maximal effect (EC50) of 1800 nM. Against the preceding compound, the EC50 is about 3.6-fold lower. Take `O=S(=O)(C1CCOC1)N(Cc1ccco1)CC(O)Cn1c2ccccc2c2ccccc21` (stereo not shown) [Compound 85, N-(3-(9H-Carbazol-9-yl)-2-hydroxypropyl)-N-(furan-2-ylmethyl)tetrahydrofuran-3-sulfonamide]: the EC50 worked out at 510 nM. Take `CC(C)(C(O)CN1CCCS1(=O)=O)n1c2ccccc2c2ccccc21` (stereo not shown) [Compound 114, 2-(3-(9H-Carbazol-9-yl)-2-hydroxy-3-methylbutyl)-isothiazolidine-1,1-dioxide]: a half-maximal effect (EC50) was put at 521 nM. This EC50 and that of the compound before are within 1.5-fold of each other.

On to `CN1CCCN(CC(C)(O)Cn2c3ccc(F)cc3c3cc(F)ccc32)S1(=O)=O` (stereo not shown) [Compound 170, 2-(3-(3,6-Difluoro-9H-carbazol-9-yl)-2-hydroxy-2-methylpropyl)-6-methyl-1,2,6-thiadiazinane-1,1-dioxide], for which the half-maximal effective concentration (EC50) was found to be 1260 nM.

In the case of `CS(=O)(=O)N(CC(O)Cn1c2ccccc2c2ccccc21)C1CC1` (stereo not shown) [Compound 56, N-(3-(9H-Carbazol-9-yl)-2-hydroxypropyl)-N-cyclopropylmethanesulfonamide], the EC50 came to 128 nM. Against the preceding compound, the EC50 is about 9.8-fold lower.

On to `CS(=O)(=O)N(CC(O)Cn1c2ccccc2c2ccccc21)CC1CCCCO1` (stereo not shown) [Compound 53, N-(3-(9H-Carbazol-9-yl)-2-hydroxypropyl)-N-((tetrahydro-2H-pyran-2-yl)methyl)methanesulfonamide], for which it took 578 nM to reach a half-maximal effect (EC50). For `O=S1(=O)N(CC(O)Cn2c3ccc(F)cc3c3cc(F)ccc32)CCCN1C1CCCCC1` (stereo not shown) [Compound 222, 2-(3-(3,6-Difluoro-9H-carbazol-9-yl)-2-hydroxypropyl)-6-cyclohexyl-1,2,6-thiadiazinane-1,1-dioxide] the value was 7120 nM. `CC(C)c1ccc(N(CC(O)Cn2c3ccc(F)cc3c3cc(F)ccc32)S(C)(=O)=O)cc1` (stereo not shown) [Compound 205, N-(3-(3,6-Difluoro-9H-carbazol-9-yl)-2-hydroxypropyl)-N-(4-isopropylphenyl)methanesulfonamide]: the midpoint of the response, the EC50, lay at 1210 nM.

In turn, `Cc1ccc(N(CC(O)Cn2c3ccccc3c3ccccc32)S(C)(=O)=O)cc1` (stereo not shown) [Compound 25, N-(3-(9H-Carbazol-9-yl)-2-hydroxypropyl)-N-p-tolylmethanesulfonamide] showed an EC50 of 170 nM.

`CC(O)(CN1CCCN(C2CCC2)S1(=O)=O)Cn1c2ccc(F)cc2c2cc(F)ccc21` (stereo not shown) [Compound 229, 2-(3-(3,6-Difluoro-9H-carbazol-9-yl)-2-hydroxy-2-methylpropyl)-6-cyclobutyl-1,2,6-thiadiazinane-1,1-dioxide] yielded an EC50 of 4980 nM.

With `O=S1(=O)CCCN1CC(O)Cn1c2ccc(F)cc2c2c(F)cccc21` (stereo not shown) [Compound 108, N-(3-(3,5-Difluoro-9H-carbazol-9-yl)-2-hydroxypropyl)-isothiazolidine-1,1-dioxide], the EC50 worked out at 388 nM. With `CS(=O)(=O)N(CC(O)Cn1c2ccccc2c2ccccc21)C1CCCC1` (stereo not shown) [Compound 58, N-(3-(9H-Carbazol-9-yl)-2-hydroxypropyl)-N-cyclopentylmethanesulfonamide], it took 150 nM to reach a half-maximal effect (EC50). Consider `CC(O)(CNS(C)(=O)=O)Cn1c2ccc(F)cc2c2cc(F)ccc21` (stereo not shown) [Compound 152, N-(3-(3,6-Difluoro-9H-carbazol-9-yl)-2-hydroxy-2-methylpropyl)methanesulfonamide], for which the half-maximal effective concentration (EC50) was determined as 1910 nM. Compared with the last compound, the EC50 is about 13-fold higher. For `CN(CC(O)Cn1c2ccccc2c2ccccc21)S(C)(=O)=O` (stereo not shown) [Compound 32, N-(3-(9H-Carbazol-9-yl)-2-hydroxypropyl)-N-methylmethanesulfonamide] the value was 100 nM; for `CN(CC(O)Cn1c2cc(F)ccc2c2c(F)cccc21)S(C)(=O)=O` (stereo not shown) [Compound 98, N-(3-(2,5-Difluoro-9H-carbazol-9-yl)-2-hydroxypropyl)-N-methylmethanesulfonamide], 8100 nM; for `CC1(N(CC(O)Cn2c3ccccc3c3ccccc32)S(C)(=O)=O)CCCC1` (stereo not shown) [Compound 143, N-(3-(9H-Carbazol-9-yl)-2-hydroxypropyl)-N-(1-methylcyclopentyl)methanesulfonamide], 28 nM. For `CS(=O)(=O)N(CC(O)Cn1c2ccccc2c2ccccc21)c1cccc(C#N)c1` (stereo not shown) [Compound 72, N-(3-(9H-Carbazol-9-yl)-2-hydroxypropyl)-N-(3-cyanophenyl)methanesulfonamide], the EC50 stood at 2580 nM. Under `O=S1(=O)N(CC(O)Cn2c3ccc(F)cc3c3cc(F)ccc32)CCC1(F)F` (stereo not shown) [Compound 185, 2-(3-(3,6-Difluoro-9H-carbazol-9-yl)-2-hydroxypropyl)-5,5-difluoroisothiazolidine-1,1-dioxide] stands 45 nM; under `CC1(N(CC(O)Cn2c3ccc(F)cc3c3cc(F)ccc32)S(C)(=O)=O)CCC1` (stereo not shown) [Compound 186, N-(3-(3,6-Difluoro-9H-carbazol-9-yl)-2-hydroxypropyl)-N-(1-methylcyclobutyl)methanesulfonamide], 83 nM; under `CCN1CCN(CC(O)Cn2c3ccc(F)cc3c3cc(F)ccc32)S1(=O)=O` (stereo not shown) [Compound 216], 150 nM. The compound `CS(=O)(=O)N(Cc1ccco1)CC(O)Cn1c2ccc(F)cc2c2c(F)cccc21` (stereo not shown) [Compound 109, N-(3-(3,5-Difluoro-9H-carbazol-9-yl)-2-hydroxypropyl)-N-(furan-2-ylmethyl)methanesulfonamide] came in with an EC50 of 7420 nM. With `O=S1(=O)CCCCN1CC(O)Cn1c2cc(F)ccc2c2ccc(F)cc21` (stereo not shown) [Compound 91, N-(3-(2,7-Difluoro-9H-carbazol-9-yl)-2-hydroxypropyl)-1,2-thiazinane 1,1-dioxide], the response was half-maximal at 150 nM (EC50). Compound `CCN(CC(O)Cn1c2cc(F)ccc2c2ccc(F)cc21)S(C)(=O)=O` (stereo not shown) [Compound 158, N-(3-(2,7-Difluoro-9H-carbazol-9-yl)-2-hydroxypropyl)-N-ethylmethanesulfonamide] displayed an EC50 of 811 nM.

`CCN1CCN(CC(C)(O)Cn2c3ccc(F)cc3c3cc(F)ccc32)S1(=O)=O` (stereo not shown) [Compound 219] came in with an EC50 of 1580 nM. Take `CS(=O)(=O)N(Cc1ccco1)CC(O)Cn1c2ccccc2c2ccc(F)cc21` (stereo not shown) [Compound 237, N-(3-(2-Fluoro-9H-carbazol-9-yl)-2-hydroxy-propyl)-N-(furan-2-yl-methyl)methane-sulfonamide]: the response was half-maximal at 594 nM (EC50). With `CS(=O)(=O)N(CC(O)Cn1c2cc(F)ccc2c2ccc(F)cc21)C1CCC1` (stereo not shown) [Compound 160, N-Cyclobutyl-N-(3-(2,7-difluoro-9H-carbazol-9-yl)-2-hydroxypropyl)methanesulfonamide], the EC50 came out at 605 nM. This EC50 and that of the compound before are within 1.5-fold of each other. The compound `CC1(N(CC(O)Cn2c3ccccc3c3ccccc32)S(C)(=O)=O)CCC1` (stereo not shown) [Compound 138, N-(3-(9H-Carbazol-9-yl)-2-hydroxypropyl)-N-(1-methylcyclobutyl)methanesulfonamide] displayed an EC50 of 41 nM. Compound `Cc1cccc(N(CC(O)Cn2c3ccccc3c3ccccc32)S(C)(=O)=O)c1` (stereo not shown) [Compound 63, N-(3-(9H-Carbazol-9-yl)-2-hydroxypropyl)-N-m-tolylmethanesulfonamide] showed a 50% effective concentration (EC50) of 199 nM. The compound `CS(=O)(=O)N(Cc1ccccc1)CC(O)Cn1c2ccccc2c2ccccc21` (stereo not shown) [Compound 44, N-(3-(9H-Carbazol-9-yl)-2-hydroxypropyl)-N-benzylmethanesulfonamide] displayed an EC50 of 8270 nM.
